# Assay results as given in patent US6452028B1, “Vitamin D3 analogs” (Hoffmann-La Roche Inc., priority 1996, dated 2002).
# Tests used:
# HL-60 cells = test: HL-60 cell differentiation (NBT reduction); format: cell-based; settings: concentration leading to 50% of maximal differentiation achieved with 100-1000 nM calcitriol, 3 days, read-out: ED50 (the source's name)
# Protocol: HL-60 Cell Differentiation
# The induction of differentiation of HL-60 cells was assayed by measuring their oxidative burst potential via the reduction of nitrobluetetrazolium (NBT).
# HL-60 cells (30,000 cells/90 μl of RPMI/supplemented medium) were seeded into flat-bottomed microtiter wells. Immediately after seeding, 10 μl of test compounds diluted in supplemented RPMI medium were added to the wells at the same time to yield final concentrations between 10^−11 and 10^−6 M (starting from stock solutions of 10^−2 M in ethanol stored at −20° C. and protected from light).
# HaCaT cell line = test: Inhibition of keratinocyte proliferation (3H-thymidine uptake); format: cell-based, human; settings: 3H-thymidine incorporation after 6 days of culture in presence of the test compound
# [1] = system: MCF-7 breast carcinoma cells; test: Antiproliferative activity in MCF-7 breast carcinoma cells (MTT); format: cell-based; settings: inhibition of cell growth, day 3 to 7 post drug addition, Reed and Muench formula
# [2] = system: T47-D breast carcinoma cells; test: Antiproliferative activity in T47-D breast carcinoma cells (MTT); format: cell-based; settings: inhibition of cell growth, day 3 to 7 post drug addition, Reed and Muench formula
Compound,EC50 (HL-60 cells) [nM],IC50 [1] [nM],also measured
"1,25-Dihydroxy-16,23Z-diene-26,27-hexafluoro-20-epi-19-nor-cholecalciferol",4.5,,
"C=C1C(=CC=C2CCCC3(C)C(C(C)C/C=C\C(O)(C(F)(F)F)C(F)(F)F)=CCC23)CC(O)CC1O (stereo not drawn) [1,25-Dihydroxy-16,23Z-diene-26,27-hexafluoro-20-epi-cholecalciferol]",2.3,,
"C=C1C(=CC=C2CCCC3(C)C(C(C)CCCC(C)(C)O)=CCC23)CC(O)CC1O (stereo not drawn) [1,25-Dihydroxy-16-ene-20-epi-cholecalciferol]",2.5,,IC50 (HaCaT cell line): 4 nM
"C=C1C(=CC=C2CCCC3(C)C(C(C)CC#CC(C)(C)O)=CCC23)CC(O)CC1O (stereo not drawn) [1,25-Dihydroxy-16-ene-23-yne-20-epi-cholecalciferol]",15,,IC50 (HaCaT cell line): 93 nM
"CCC(O)(C#CCC(C)C1=CCC2C(=CC=C3CC(O)CC(O)C3)CCCC12C)CC (stereo not drawn) [1,25-Dihydroxy-16-ene-23-yne-26,27-bishomo-19-nor-20-epi-cholecalciferol]",,12,
"C=C1/C(=C\C=C2/CCC[C@]3(C)C([C@@H](C)CC#CC(O)(CC)CC)=CC[C@@H]23)C[C@@H](O)C[C@@H]1O [1,25-Dihydroxy-16-ene-23-yne-26,27-bishomo-20-epi-chole-calciferol]",,11,
"C=C1/C(=C\C=C2/CCC[C@]3(C)C([C@@H](C)CC#CC(O)(C(F)(F)F)C(F)(F)F)=CC[C@@H]23)C[C@@H](O)C[C@@H]1O [1,25-Dihydroxy-16-ene-23-yne-26,27-hexafluoro-20-epi-cholecalciferol]",2,0.95,IC50 [2]: 6.7 nM; IC50 (HaCaT cell line): 50 nM
"C=C1/C(=C\C=C2/CCC[C@]3(C)[C@@H]([C@H](C)CCCC(C)(C)O)CC[C@@H]23)C[C@@H](O)C[C@@H]1O [1,25-Dihydroxy-cholecalciferol, reference compound]",,,"IC50 (HaCaT cell line; Homo sapiens, HaCaT): 55 nM"
"C=C1/C(=C\C=C2/CCC[C@]3(C)C([C@@H](C)C/C=C/C(O)(C(F)(F)F)C(F)(F)F)=CC[C@@H]23)C[C@@H](O)C[C@@H]1F [1α-Fluoro-25-hydroxy-16,23E-diene-26,27-hexafluoro-20-epi-cholecalciferol]",,9,
"C=C1C(=CC=C2CCCC3(C)C(C(C)C/C=C\C(O)(C(F)(F)F)C(F)(F)F)=CCC23)CC(O)CC1F (stereo not drawn) [1α-Fluoro-25-hydroxy-16,23Z-diene-26,27-hexafluoro-20-epi-cholecalciferol]",20,,
"C=C1/C(=C\C=C2/CCC[C@]3(C)C([C@@H](C)C/C=C/C(O)(CC)CC)=CC[C@@H]23)C[C@@H](O)C[C@@H]1F [1α-Fluoro-25-hydroxy-16-23E-diene-26,27-bishomo-20-epi-cholecalciferol]",,30,
"C=C1C(=CC=C2CCCC3(C)C(C(C)CC#CC(O)(C(F)(F)F)C(F)(F)F)=CCC23)CC(O)CC1F (stereo not drawn) [1α-Fluoro-25-hydroxy-16-ene-23-yne-26,27-hexafluoro-20-epicholecalciferol]",,11,
